Assay type in all cases: cell-based
For assay [1], the system named is Aspergillus fumigatus AF210. The assay can be described thus: MIC, RPMI medium. As to conditions: Aspergillus fumigatus, AF210, MIC banded into grades, read-out: MIC grade, A. fumigatus 210. The method, then:
(§1) Between 1 and 5 mgs of compound were accurately weighed out into a sterile Eppendorf tube. The compound was dissolved in DMSO to give a solution containing 5 mg/mL. Tubes were stored at −20° C. until required.
(§2) On the day of testing thawed solutions were vortex mixed to ensure homogeneity. 30 μL of solution was removed and added to 570 μL of sterile water in a separate sterile Eppendorf. The thoroughly mixed solution was used to prepare a series of doubling dilutions in water, in a deep well plate. Thirteen replicate plates were prepared using a Minitrak by aspirating 20 μL from each well into eleven clear polystyrene 96 well plates.
(§3) Assays were also performed in RPMI medium for both Aspergillus spp. (strains described above) and Candida spp. (Candida albicans, Candida glabrata, Candida krusei, Candida parapsilosis and Candida tropicalis). To perform MIC tests in this medium, dilutions of compounds are prepared in microtitre plates as described above. Fungal strains to be tested are grown and harvested in an identical manner to that described above, and each organism suspension was diluted in RPMI medium, containing 2% glucose and 0.135 M MOPS buffer (pH 7.0) to 0.5-2×10^4 cfu/mL, rather than in YAG medium. 80 μL of an organism suspension was added to each well of the plate containing drug dilutions.
(§4) This produced MIC plates with a drug range 50-0.05 mg/L and organism inocula of 1−2×10^4 cfu/mL. All plates were incubated for 24-48 h at 35° C. Growth was assessed by monitoring the optical density at 485 nm for each well. The MIC of a compound is the lowest drug concentration that inhibits growth of an organism by >80% compared with a drug free control.
(§5) The following organisms were tested: Aspergillus flavus, Aspergillus fumigatus AF293 and AF210, Aspergillus niger, Aspergillus terreus AT4 and AT49, Candida albicans, Candida glabrata, Candida krusei, Candida parapsilosis and Candida tropicalis.

In assay [2] the test system is Aspergillus terreus AT4. The assay can be described thus: MIC, RPMI medium. As to conditions: Aspergillus terreus, AT4, MIC banded into grades, read-out: MIC grade, A. terreus. The method, then:
as §1, §2, §3, §4, §5

Assay [3] has as its system Aspergillus fumigatus AF293. The assay can be described thus: MIC, RPMI medium. As to conditions: Aspergillus fumigatus, AF293, MIC banded into grades, read-out: MIC grade, A. fumigatus. The method, then:
as §1, §2, §3, §4, §5

Assay [4] deals with Aspergillus niger. The assay can be described thus: MIC, RPMI medium. As to conditions: Aspergillus niger, MIC banded into grades, read-out: MIC grade, A. niger. The method, then: as §1, §2, §3, §4, §5
The test system of assay [5] is Aspergillus flavus. The assay can be described thus: MIC, RPMI medium. As to conditions: Aspergillus flavus, MIC banded into grades, read-out: MIC grade, A. flavus. The method, then:
as §1, §2, §3, §4, §5

Assay [6] concerns Aspergillus terreus AT49. Put plainly: MIC, RPMI medium. As to conditions: Aspergillus terreus, AT49, MIC banded into grades, read-out: MIC grade, A. terreus 49. The method, then:
as §1, §2, §3, §4, §5

For assay [7], the system named is Aspergillus fumigatus AF210. The assay can be described thus: MIC, YAG medium. As to conditions: Aspergillus fumigatus, 24 h at 35° C, MIC banded into grades, read-out: MIC grade, A. fumigatus 210. The method, then: as §1, §2
(§6) Spores of Aspergillus spp. (Aspergillus fumigatus [two strains], Aspergillus terreus [two strains], Aspergillus niger and Aspergillus flavus) were harvested from cultures grown on Sabarauds agar for 5 days, and resuspended in PBS/Tween 80 to approx 1×10^7 cfu/mL. Each organism suspension was diluted in YAG medium (1% glucose, 1% ammonium chloride and 0.5% yeast extract) to 0.5−2×10^4 cfu/mL. 80 μL of an organism suspension was added to each well of the plate containing drug dilutions.
(§7) This produced MIC plates with a drug range 50-0.05 mg/L and organism inocula of 1−2×10^4 cfu/mL for Aspergillus spp. All plates were incubated for 24 h at 35° C. Growth was assessed by monitoring the optical density at 485 nm for each well. The MIC of a compound is the lowest drug concentration that inhibits growth of an organism by >70% compared with a drug free control. MICs are recorded as mg/L. In cases where the MIC of an organism is […] mg/L the MIC is repeated using a concentration range of 0.5-0.0005 mg/L.
as §5

In assay [8] the test system is Aspergillus terreus AT4. Put plainly: MIC, YAG medium. As to conditions: Aspergillus terreus, 24 h at 35° C, MIC banded into grades, read-out: MIC grade, A. terreus. The method, then:
as §1, §2, §6, §7, §5

The subject of assay [9] is Aspergillus fumigatus AF293. The assay can be described thus: MIC, YAG medium. As to conditions: Aspergillus fumigatus, 24 h at 35° C, MIC banded into grades, read-out: MIC grade, A. fumigatus. The method, then: as §1, §2, §6, §7, §5
Assay [10] concerns Aspergillus niger. Put plainly: MIC, YAG medium. As to conditions: Aspergillus niger, 24 h at 35° C, MIC banded into grades, read-out: MIC grade, A. niger. The method, then: as §1, §2, §6, §7, §5
For assay [11], the system named is Aspergillus flavus. Put plainly: MIC, YAG medium. As to conditions: Aspergillus flavus, 24 h, 24 h at 35° C, MIC banded into grades, read-out: MIC grade, A. flavus. The method, then: as §1, §2, §6, §7, §5
For assay [12], the system named is Aspergillus terreus AT49. Put plainly: MIC, YAG medium. As to conditions: Aspergillus terreus, 24 h at 35° C, MIC banded into grades, read-out: MIC grade, A. terreus 49. The method, then: as §1, §2, §6, §7, §5

Values after ≈ are worked out from the molar mass of the structure shown.

On to `Cc1cc(C)nc(N2CCN(c3ccc(NC(=O)C(=O)c4c(-c5ccccc5)cc(C)n4C)cc3O)CC2)c1` [Example 22, 2-(1,5-Dimethyl-3-phenyl-1H-pyrrol-2-yl)-N-{4-[4-(4,6-dimethyl-pyridin-2-yl)-piperazin-1-yl]-3-hydroxy-phenyl}-2-oxo-acetamide], for which the MIC (in assay [1]; in the assay with Aspergillus terreus AT4 [2]; in assay [3]; in the assay with Aspergillus niger [4]; in the assay on Aspergillus flavus [5]; in the assay with Aspergillus terreus AT49 [6]) was less than 1 µg/mL in each case. For the same compound, the MIC (in [7]; in the assay on Aspergillus terreus AT4 [8]; in [9]; with Aspergillus niger [10]; with Aspergillus flavus [11]; in the assay on Aspergillus terreus AT49 [12]) was less than 1 µg/mL in each case.

With `Cc1cc(-c2ccccc2)c(C(=O)C(=O)Nc2ccc(N3CCN(CC(C)C)CC3)cc2F)n1C` [Example 105, 2-(1,5-Dimethyl-3-phenyl-1H-pyrrol-2-yl)-N-[2-fluoro-4-(4-isobutyl-piperazin-1-yl)-phenyl]-2-oxo-acetamide], the MIC (in assay [1]; in the assay with Aspergillus terreus AT4 [2]; in [3]; with Aspergillus niger [4]; with Aspergillus flavus [5]; with Aspergillus terreus AT49 [6]) was less than 1 µg/mL throughout. Besides, the minimal inhibitory concentration (MIC) (in assay [7]; in the assay with Aspergillus terreus AT4 [8]; in assay [9]; with Aspergillus niger [10]; with Aspergillus flavus [11]; in the assay on Aspergillus terreus AT49 [12]) was less than 1 µg/mL each time.

On to `COCCn1c(C)cc(-c2ccccc2)c1C(=O)C(=O)Nc1ccc(N2CCN(c3ccccn3)CC2)cc1F` [Example 96, N-[2-Fluoro-4-(4-pyridin-2-yl-piperazin-1-yl)-phenyl]-2-[1-(2-methoxy-ethyl)-5-methyl-3-phenyl-1H-pyrrol-2-yl]-2-oxo-acetamide], for which the MIC – broadly, the smallest concentration in the dilution series that meets the test's criterion for growth inhibition – in [1] was less than 1 µg/mL; in the assay with Aspergillus terreus AT4 [2], less than 1 µg/mL; in assay [3], less than 1 µg/mL; with Aspergillus niger [4], less than 1 µg/mL; with Aspergillus flavus [5], 1 to 10 µg/mL (≈ 1.85 to 18.5 µM); in the assay on Aspergillus terreus AT49 [6] it was 1 to 10 µg/mL (≈ 1.85 to 18.5 µM). In addition, the MIC (in assay [7]; with Aspergillus terreus AT4 [8]; in assay [9]; with Aspergillus niger [10]; in the assay with Aspergillus flavus [11]; in the assay on Aspergillus terreus AT49 [12]) was less than 1 µg/mL in each case.

As for `CCc1cc(-c2ccccc2)c(C(=O)C(=O)Nc2ccc(N3CCN(c4cc(C)cc(C)n4)CC3)cc2)n1C` [Example 53, N-{4-[4-(4,6-Dimethyl-pyridin-2-yl)-piperazin-1-yl]-phenyl}-2-(5-ethyl-1-methyl-3-phenyl-1H-pyrrol-2-yl)-2-oxo-acetamide], the minimum inhibitory concentration (MIC) (in [1]; in the assay on Aspergillus terreus AT4 [2]; in assay [3]; with Aspergillus niger [4]; in the assay with Aspergillus flavus [5]; with Aspergillus terreus AT49 [6]) was less than 1 µg/mL in each case. In addition, the minimal inhibitory concentration (MIC) (in assay [7]; with Aspergillus terreus AT4 [8]; in [9]; with Aspergillus niger [10]; with Aspergillus flavus [11]; in the assay with Aspergillus terreus AT49 [12]) was less than 1 µg/mL each time.

For the compound `CCCOCn1c(C)cc(-c2ccccc2)c1C(=O)C(=O)Nc1ccc(N2CCN(c3cc(C)cc(C)n3)CC2)cc1` [Example 139, N-{4-[4-(4,6-Dimethyl-pyridin-2-yl)-piperazin-1-yl]-phenyl}-2-(5-methyl-3-phenyl-1-propoxymethyl-1H-pyrrol-2-yl)-2-oxo-acetamide], the MIC in [1] is 1 to 10 µg/mL (≈ 1.77 to 17.7 µM); with Aspergillus terreus AT4 [2] it was 1 to 10 µg/mL (≈ 1.77 to 17.7 µM); in [3], 1 to 10 µg/mL (≈ 1.77 to 17.7 µM); with Aspergillus niger [4], 1 to 10 µg/mL (≈ 1.77 to 17.7 µM); in the assay on Aspergillus flavus [5], more than 10 µg/mL; with Aspergillus terreus AT49 [6], 1 to 10 µg/mL (≈ 1.77 to 17.7 µM). In addition, the MIC in [7] was less than 1 µg/mL; in the assay on Aspergillus terreus AT4 [8], 1 to 10 µg/mL (≈ 1.77 to 17.7 µM); in assay [9] it was less than 1 µg/mL; with Aspergillus niger [10], less than 1 µg/mL; with Aspergillus flavus [11], 1 to 10 µg/mL (≈ 1.77 to 17.7 µM); in the assay on Aspergillus terreus AT49 [12], less than 1 µg/mL.

The values above are taken from patent publication US8993574B2, “Pyrrole antifungal agents” (F2G Ltd, priority 2008, dated 2015).
